This is an account of results in patent publication US20240165112A1, “THERAPY FOR THE TREATMENT OF CANCER” (Bristol-Myers Squibb Company, priority 2022, published 2024).

The structures appear in SMILES notation.

Series [1] concerns COL1A1, PAI-1, TNC, LRRC15 transcripts in A549 lung cancer cells. The series can be described thus: TGF-β-induced transcripts in A549 tumor cells (RT-PCR). In kind it is cell-based, human. The method, then:
Indicated gene transcripts were assessed by RT-PCR relative to GAPDH. Data were normalized to expression after TGF-β-treatment in the presence of only DMSO. Data are presented as mean of 3 biological replicates, and error bars indicate standard deviation. The graphs are representative of at least 2 independent experiments. *P<0.05; ** P<0.01, ***P<0.001; ****P<0.0001 by student's t-test.
Cells were directly lysed in Qiagen™ Buffer RLT Plus with 1% 2-Mercaptoethanol added. Total RNA from tumor samples and cell lines was isolated using Qiagen™ AllPrep® DNA/RNA 96 Kit according to manufacturer's protocol. Isolated RNA was analyzed with NanoDrop™ ONE Spectrophotometer for concentration. The RNA integrity was also analyzed on Agilent TapeStation 4200.
Complimentary deoxyribonucleic acid (cDNA) was prepared by using Invitrogen™ SuperScript™ III First-Strand Synthesis SuperMix for qRT-PCR. Up to 1 μg of RNA was prepared according to manufacturer's protocol, using Applied Biosystems™ Veriti™ 96-well thermal cycler. The reverse transcription (RT) program used for cDNA synthesis: • 1. 25° C., 10 minutes • 2. 50° C., 30 minutes • 3. 85° C., 5 minutes • 4. Add E. Coli RNase H, 37° C., 20 minutes • 5. Hold at 4° C. Quantitative Reverse Transcription Polymerase Chain Reaction (qRT-PCR).
The cDNA was diluted 1:3 fold in nuclease-free water for quantitative polymerase chain reaction (qPCR) setup. Human and mouse TaqMan™ assays for targeted genes were ordered through Applied Biosystems™. TaqMan™ assay selection was based on manufacturer's recommendation. The qRT-PCR was set up using Applied Biosystems™ TaqMan™ Fast Advanced Master Mix according to manufacturer's protocol. The qRT-PCR was run on QuantStudio™ 12 Flex with fast run mode: • 1. 95° C., 20 seconds • 2. 95° C., 1 second • 3. 60° C., 20 seconds • 4. Repeat steps 2-3, 39 times
The qPCR data was analyzed, and all cycle threshold (Ct) values were normalized to glyceraldehyde-3-phosphate dehydrogenase (GAPDH) (ΔCt). Analysis was plotted and presented using GraphPad Prism (GraphPad, Version 8.4.1, San Diego, CA).
The RNA expression was assessed 24 hours after TGF-β treatment.

In series [2] the test system is primary human macrophages. The series can be described thus: Primary macrophage viability (Cell Titer Glo). In kind it is cell-based. As to conditions: Cell Titer Glo at the end of the experiment; any of the doses tested. The method, then: FIG. 12 illustrates the effect of Compound 1 on Primary Macrophage Viability. Primary human monocytes were differentiated into macrophages and treated with varying doses of DMSO or Compound 1. Cell viability was assessed by Cell Titer Glo 24 hours after drug treatment. Viability in drug treatment groups was normalized to the equivalent DMSO concentration. Data are plotted as the mean and standard deviation of 3 donors and representative of 2 independent experiments. Abbreviations: DMSO, dimethyl sulfoxide.
Peripheral blood mononuclear cells (PBMCs) were isolated from human blood using aseptic conditions. CD14+ monocytes were enriched from PBMC using Miltenyi Biotech kit (using CD14 microbeads). Fresh CD14+ monocytes were differentiated to macrophages using complete RPMI1640 medium with M-CSF recombinant human protein at the final concentration of 50 ng/mL. At Day 3-4, media containing M-CSF was added on monocytes/macrophages and incubated for 6-7 days in 5% CO2 incubator at 37° C. 10 mL 10 mM EDTA or Detachin was added to the culture dish containing macrophages, and let sit for 20-30 minutes, or until cells dissociate from the dish at room temperature. Macrophages were collected and washed in a 50 mL conical tube and centrifuged at 300-400×g for 4-5 minutes at room temperature. […]
A general note: ATP-based viability assays read luminescence as a measure of living cells.

Setting [3] is: 30 μM Compound 1, 10 ng/mL TGF-β, 24 hours.

On to `C[C@@H]1CC[C@@H](Nc2nc(NC(C)(C)C)ncc2C(N)=O)C[C@H]1O` [Compound 1, 2-(tert-butylamino)-4-((1R,3R,4R)-3-hydroxy-4-methylcyclohexylamino)-pyrimidine-5-carboxamide], for which, in series [1] (setting [3]), the “COL1A1 reduced relative to TGF-β stimulation in the presence of DMSO alone” value turned out to be 56%, the “PAI-1 reduced relative to TGF-β stimulation in the presence of DMSO alone” value is reported as 64% and the “TNC reduced relative to TGF-β stimulation in the presence of DMSO alone” value was determined as 90%. Besides, in series [1] (Compound 1 at 30 μM, 15 μM or 5 μM), the “Tenascin C upregulation with TGF-β treatment” value is listed as “inhibited by all doses of Compound 1 tested”. In addition, the “Macrophage cell viability relative to DMSO” value in series [2] is reported as “No change in cell viability”.
